In paper PMC11995724, “Antibiotic target discovery by integrated phenotypic and activity-based profiling of electrophilic fragments” (Cell chemical biology, 2025):
Where a name gives a salt, the structure may show the parent alone.

Test: in vitro
Conditions: human, hek293t cells

| SMILES | viability at 48 h, 25 µM [%] |
| --- | --- |
| COC(=O)c1c(C(=O)CCl)c(C)n(C(C)C)c1C [10-K21, methyl 4-(2-chloroacetyl)-2,5-dimethyl-1-(propan-2-yl)-1H-pyrrole-3-carboxylate] | 71.2 |
| C=CC(=O)N(Cc1cn(C)cn1)[C@H]1CCCc2ccc(C)cc21 [1-J11, N-[(1S)-7-methyl-1,2,3,4-tetrahydronaphthalen-1-yl]-N-[(1-methyl-1H-imidazol-4-yl)methyl]prop-2-enamide] | 88.8 |
| O=C(CCl)Nc1cccnn1 [6-O17, 2-chloro-N-(pyridazin-3-yl)acetamide hydrochloride] | 118 |
| CC(C)NC(=O)C(C#N)=Cc1ccc(OC(C)C)cc1 [8-G12, 2-cyano-N-(propan-2-yl)-3-[4-(propan-2-yloxy)phenyl]prop-2-enamide] | 64.9 |
| Cc1ccsc1C=C(C#N)C(=O)Nc1c(Cl)cccc1Cl [8-D22, 2-cyano-N-(2,6-dichlorophenyl)-3-(3-methylthiophen-2-yl)prop-2-enamide] | 78.5 |
| C=CC(=O)Nc1cccc(OC(C)(C)C)c1 [3-G14, N-[3-(tert-butoxy)phenyl]prop-2-enamide] | 85.8 |
| O=C(CCl)Nc1cc(-n2nnnc2C2CC2)ccc1F [6-E09, 2-chloro-N-[5-(5-cyclopropyl-1H-1,2,3,4-tetrazol-1-yl)-2-fluorophenyl]acetamide] | 2.11 |
| C=CC(=O)NCCC(=O)N1CCC2(CC(=O)c3ccccc3O2)C1 (centres unmarked) [1-F12, N-(3-oxo-3-{4-oxo-3,4-dihydrospiro[1-benzopyran-2,3'-pyrrolidin]-1'-yl}propyl)prop-2-enamide] | 82.1 |
| CC(Cl)C(=O)N1CC(=O)Nc2cc(C(F)(F)F)ccc21 (centres unmarked) [4-N20, 4-(2-chloropropanoyl)-7-(trifluoromethyl)-1,2,3,4-tetrahydroquinoxalin-2-one] | 82.1 |
| N#CC(=Cc1ccc(Oc2cnccn2)cc1)C(=O)NC1CCCC1 [9-F20, 2-cyano-N-cyclopentyl-3-[4-(pyrazin-2-yloxy)phenyl]prop-2-enamide] | 95.3 |
| CNC(=O)CC(NC(=O)CCl)c1ccc(F)cc1F (centres unmarked) [4-I16, 3-(2-chloroacetamido)-3-(2,4-difluorophenyl)-N-methylpropanamide] | 18.5 |
| C=CC(=O)NCC1CCN(C2CC2)CC1 [1-A07, N-[(1-cyclopropylpiperidin-4-yl)methyl]prop-2-enamide] | 80.2 |
| CCC(C)n1nccc1NC(=O)C(C)Cl (centres unmarked) [6-A20, N-[1-(butan-2-yl)-1H-pyrazol-5-yl]-2-chloropropanamide] | 84.8 |
| C=CC(=O)NCc1nncn1-c1ccccc1 [1-G07, N-[(4-phenyl-4H-1,2,4-triazol-3-yl)methyl]prop-2-enamide] | 77.3 |
| CN1c2ccccc2C(NC(=O)CCl)CS1(=O)=O (centres unmarked) [7-L04, 2-chloro-N-(1-methyl-2,2-dioxo-3,4-dihydro-1H-2lambda6,1-benzothiazin-4-yl)acetamide] | 0.505 |
| O=C(CCl)NCCc1ccn(C2CCCC2)n1 [7-L20, 2-chloro-N-[2-(1-cyclopentyl-1H-pyrazol-3-yl)ethyl]acetamide] | 38.7 |
| CC(Cl)C(=O)N(C)CCn1c(=O)oc2ccccc21 (centres unmarked) [7-H15, 2-chloro-N-methyl-N-[2-(2-oxo-2,3-dihydro-1,3-benzoxazol-3-yl)ethyl]propanamide] | 102 |
| O=C(CCl)N1N=C(c2ccc(Cl)cc2)CC1c1ccco1 (centres unmarked) [5-L04, 2-chloro-1-[3-(4-chlorophenyl)-5-(furan-2-yl)-4,5-dihydro-1H-pyrazol-1-yl]ethan-1-one] | -0.215 |
| CCc1cccc(CC)c1NC(=O)CCl [4-F10, 2-chloro-N-(2,6-diethylphenyl)acetamide] | 99.1 |
| N#CC(=Cc1ccco1)C(=O)NC1CCN(c2ccc(F)cc2F)C1 (centres unmarked) [9-L09, 2-cyano-N-[1-(2,4-difluorophenyl)pyrrolidin-3-yl]-3-(furan-2-yl)prop-2-enamide] | 111 |
| CCCCNC(=O)C(C#N)=Cc1cc(F)ccc1F [8-K08, N-butyl-2-cyano-3-(2,5-difluorophenyl)prop-2-enamide] | 39.8 |
| Nc1c(C(=O)CCl)c(=O)[nH]c(=O)n1C1CC1 [10-P06, 6-amino-5-(2-chloroacetyl)-1-cyclopropyl-1,2,3,4-tetrahydropyrimidine-2,4-dione] | 111 |
| CC(Cl)C(=O)NCC(c1ccc(Cl)cc1)n1cccn1 (centres unmarked) [7-J05, 2-chloro-N-[2-(4-chlorophenyl)-2-(1H-pyrazol-1-yl)ethyl]propanamide] | 100 |
| COc1cc(C=C(C#N)C(=O)Nc2ccc(F)cc2)cc(Cl)c1O [8-H07, 3-(3-chloro-4-hydroxy-5-methoxyphenyl)-2-cyano-N-(4-fluorophenyl)prop-2-enamide] | 87.7 |
| CC(Cl)C(=O)Nc1ccccc1Cl (centres unmarked) [4-D11, 2-chloro-N-(2-chlorophenyl)propanamide] | 97.8 |
| CC(C)NC(=O)C(C#N)=Cc1cccc(F)c1F [9-J20, 2-cyano-3-(2,3-difluorophenyl)-N-(propan-2-yl)prop-2-enamide] | 98 |
| CCN1C(=O)CSC1=C(C#N)C(N)=O [8-M09, 2-cyano-2-(3-ethyl-4-oxo-1,3-thiazolidin-2-ylidene)acetamide] | 90.5 |

| SMILES | viability at 48 h, 25 µM [%] |
| --- | --- |
| C=CC(=O)N1CCC(C(O)c2ccnn2C)CC1 (centres unmarked) [3-K03, 1-{4-[hydroxy(1-methyl-1H-pyrazol-5-yl)methyl]piperidin-1-yl}prop-2-en-1-one] | 59 |
| CC(NC(=O)CCl)C(c1ccccc1Cl)n1cccn1 (centres unmarked) [7-D20, 2-chloro-N-[1-(2-chlorophenyl)-1-(1H-pyrazol-1-yl)propan-2-yl]acetamide] | 1.01 |
| N#CC(=CC1=Cc2ccccc2OC1)C(=O)NCc1ccccc1 [9-F08, N-benzyl-3-(2H-chromen-3-yl)-2-cyanoprop-2-enamide] | 114 |
| CCOc1ccccc1NC(=O)C(C#N)=Cc1c(C)[nH]c2ccccc12 [9-A06, 2-cyano-N-(2-ethoxyphenyl)-3-(2-methyl-1H-indol-3-yl)prop-2-enamide] | 100 |
| C=CC(=O)N1CCC(C(=O)NCc2ccc(OC)cn2)CC1 [3-O19, N-[(5-methoxypyridin-2-yl)methyl]-1-(prop-2-enoyl)piperidine-4-carboxamide] | 59 |
| Cc1ccc(NC(=O)C(C#N)=Cc2cccs2)c(C)c1 [8-D15, 2-cyano-N-(2,4-dimethylphenyl)-3-(thiophen-2-yl)prop-2-enamide] | 101 |
| C=CC(=O)NCCCN1CCCS1(=O)=O [3-H19, N-[3-(1,1-dioxo-1lambda6,2-thiazolidin-2-yl)propyl]prop-2-enamide] | 88.4 |
| O=C(CCl)N(CC1=CCCOC1)Cc1ccccc1 [7-J20, N-benzyl-2-chloro-N-[(5,6-dihydro-2H-pyran-3-yl)methyl]acetamide] | 0.586 |
| O=C(CCl)N(Cc1ccco1)c1ccccc1 [4-L14, 2-chloro-N-[(furan-2-yl)methyl]-N-phenylacetamide] | 1.2 |
| O=C1C=CC(=O)N1CCc1ccc(F)cc1 [10-C21, 1-[2-(4-fluorophenyl)ethyl]-2,5-dihydro-1H-pyrrole-2,5-dione] | 21.9 |
| C=CC(=O)NC[C@@H]1CCCN1c1ccccc1 [3-E03, N-{[(2S)-1-phenylpyrrolidin-2-yl]methyl}prop-2-enamide] | 60.1 |
| CC(Cl)C(=O)N1CCOCC1c1cccn1C (centres unmarked) [7-A09, 2-chloro-1-[3-(1-methyl-1H-pyrrol-2-yl)morpholin-4-yl]propan-1-one] | 82 |
| CC(=O)c1c(C)[nH]c(C(=O)C(C)Cl)c1C (centres unmarked) [10-P22, 1-(4-acetyl-3,5-dimethyl-1H-pyrrol-2-yl)-2-chloropropan-1-one] | 103 |
| CC(=O)Nc1c(C)cc(C)c(C(=O)CCl)c1C [10-A12, N-[3-(2-chloroacetyl)-2,4,6-trimethylphenyl]acetamide] | 98.1 |
| Cc1cc(F)c(C(=O)CCl)cc1F [10-L19, 2-chloro-1-(2,5-difluoro-4-methylphenyl)ethan-1-one] | 87 |
| Cc1ncc(CNC(=O)C(C)Cl)n1C (centres unmarked) [5-J15, 2-chloro-N-[(1,2-dimethyl-1H-imidazol-5-yl)methyl]propanamide] | 106 |
| CC(Cl)C(=O)Nc1ccc(C2CC(=O)NC(=O)N2)cc1 (centres unmarked) [5-D19, 2-chloro-N-[4-(2,6-dioxo-1,3-diazinan-4-yl)phenyl]propanamide] | 92.5 |
| C=CC(=O)NC1CS(=O)(=O)C1 [3-P18, N-(1,1-dioxo-1lambda6-thietan-3-yl)prop-2-enamide] | 105 |
| CC(=O)NC1Cc2ccccc2N(C(=O)CCl)C1 (centres unmarked) [5-M20, N-[1-(2-chloroacetyl)-1,2,3,4-tetrahydroquinolin-3-yl]acetamide] | 1.81 |
| O=C(CCl)Cc1c(Cl)cccc1Cl [10-K15, 1-chloro-3-(2,6-dichlorophenyl)propan-2-one] | 23.3 |
| C=CC(=O)NCCC(=O)N1CCCN(c2cccnn2)CC1 [2-P16, N-{3-oxo-3-[4-(pyridazin-3-yl)-1,4-diazepan-1-yl]propyl}prop-2-enamide] | 77.8 |
| CC1CCCN1C(=O)CNC(=O)CCl (centres unmarked) [7-L12, 2-chloro-N-[2-(2-methylpyrrolidin-1-yl)-2-oxoethyl]acetamide] | 83.6 |
| CC(Cl)C(=O)N1CCCN(C)c2cc(F)ccc21 (centres unmarked) [6-N16, 2-chloro-1-(7-fluoro-5-methyl-2,3,4,5-tetrahydro-1H-1,5-benzodiazepin-1-yl)propan-1-one] | 101 |
| COc1ccc(Cl)c2c1CCCC2N(C)C(=O)C(C)Cl (centres unmarked) [7-P09, 2-chloro-N-(8-chloro-5-methoxy-1,2,3,4-tetrahydronaphthalen-1-yl)-N-methylpropanamide] | 86.7 |
| O=C(CCl)N(Cc1ccc2c(c1)CCO2)C1CCCC1 [6-L11, 2-chloro-N-cyclopentyl-N-[(2,3-dihydro-1-benzofuran-5-yl)methyl]acetamide] | 0.358 |
| O=C(CCl)NOCc1ccccc1 [4-H22, N-(benzyloxy)-2-chloroacetamide] | 63.3 |
